In patent US20050037062A1, “Emulsifying systems containing azetidine derivatives” (Aventis Pharma S.A., priority 2003, published 2005):
In brackets after ≈: the same amount, converted by molar mass. Like-named read-outs stand apart in the source and are kept apart here.

Columns and labels:
[1] = First in Man study (Maximum Tolerated Dose, interindividual variability, food effect); type: in vivo; conditions: Miglyol 812N solution
Description: (§1) In the first preclinical studies performed in rats, the oral administration of an aqueous suspension of a drug substance of formula (I) in 0.5% methylcellulose/0.2% tween 80 (dose at 10 mg/kg) led to a very low bioavailability (3%). […] Furthermore, this excipient (medium chain triglyceride) is known for its digestibility and regulatory acceptability. […] However, in the First in Man study, an important food effect and interindividual variability were observed: the Maximum Tolerated Dose was around 100 mg in fasted conditions, with an interindividual variability of 50%, whereas in fed conditions the Maximum Tolerated Dose was divided by 10 with a decrease of the interindividual variability to 30%.

[2] = Solubility of compound (Ic) in lipids, surfactants and pharmaceutical cosolvents; type: physicochemical
From the text: The first step was to determine the solubility of compound(Ic) in an exhaustive series of lipids and other pharmaceutical cosolvents including vegetable oils, lipidic components, surfactants, hydrophilic components and phospholipids. The protocol of the solubility measurement is reported in the annex.

[3] = Colloidal stability and self-emulsifying properties: drug recovered after incubation in simulated GI media and filtration; type: physicochemical; conditions: for Compound (Ic) recovered after filtration (2 μm) after incubation with GI media: diluted 1:50, 2 h at 37° C., theoretical concentration 200 μg/ml; for filtered fraction: aqueous solution of the drug, filter 0.45, 2 or 5 μm
Description: The preparation of the mixture of Miglyol 812 (liquid), Cremophor RH40 (semisolid at room temperature, solidification point 28° C.) and Capryol 90 (liquid) needed to heat the mixture at 60° C. to obtain a homogeneous solution. In addition, the heating of the mixture could have an impact on the chemical stability of Compound Ic. Taking into account these two issues, the proposition was made to replace Cremophor RH 40 by Cremophor EL (from same chemical family). Cremophor EL, polyoxyl 35 castor oil, is a liquid surfactant: No heating is needed for the manufacturing. Two tests were performed to evaluate the interest of Cremophor EL in comparison with Cremophor RH 40: design of the pseudoternary diagram for a surfactant/co surfactant ratio of 3:1 and test of the infinite dilutability. [drawing 15] • Miglyol 812N (Condea, Batch 508) • PEG 400—Batch 5056 • Phosal 50PG (Aventis Nattermann, Batch 228188) • Labrafil 1944CS (Gattefossé, Batch 15195) • Labrasol (Gattefossé, Batch 22478) • Gelucire 44/14 (Gattefossé, Batch 14236) Microemulsions (Cremophor RH40 or EL, Capryol 90, Miglyol 812N) The weighed drug (50 mg) was dispersed in the excipient (up to 5 g), and then maintained under mechanical stirring until dissolution. […] The mass was poured in a suppository mould and kept refrigerated overnight. For the stability studies, the melted mass was poured into hard gelatine capsule (size 1) and kept refrigerated overnight. The gelatine shell was then removed. [drawing 17] The following simulated media were selected for the present experiment: • Gastric medium USP, pH 1.2 • Fasted intestinal medium, pH 6.8 (ref. Dressman et al., Pharm. Res., 1998)
Fed intestinal medium, pH 5 (ref. Dressman et al., Pharm. Res., 1998)
All Compound (Ic) formulations (400 mg) were diluted 1:50 in the gastric, fasted intestinal or fed intestinal medium (20 ml), then incubated during 2 hours at 37° C. under mechanical stirring (300 rpm). The drug concentration was determined by HPLC before and after filtration (0.2 or 2 μm).
The aim of this study was to evaluate the colloidal stability and the self-emulsifying properties of the emulsion/microemulsion/micellar solution of the (Ic) formulation after incubation in the GI media. Thus, the sample was filtered onto 2 μm (able to retain oil droplets >2 μm, as well as drug crystals >2 μm) then dosed by HPLC. The filter size (2 μm) has been chosen after a screening with different filter sizes (0.45, 2 and 5 μm) tested on the aqueous solution of the drug. […] In summary, the filtered fraction was approximately 1% in the gastric medium, 2% in the fasted intestinal medium, 4.5-5.5% in the fed intestinal medium.

[4] = Oral bioavailability in preclinical studies in rats; conditions: rat, in vivo
Description: as §1

## CS(=O)(=O)C(=C1CN(C(c2ccc(Cl)cc2)c2ccc(Cl)cc2)C1)c1cc(F)cc(F)c1 [Compound (Ic)]
[1]; fasted conditions
  Maximum Tolerated Dose: around 100 mg
  interindividual variability: 50%
[1]; fed conditions
  Maximum Tolerated Dose relative to fasted conditions: divided by 10
  interindividual variability: 30%
[2]; aqueous with cosolvent or surfactant or cyclodextrin, in Cremophor RH40 (POE hydrogenated castor oil), read-out: solubility
  solubility: 80.6 mg/mL (≈ 163 mM)
[2]; aqueous with cosolvent or surfactant or cyclodextrin, in HP β Cyclodextrin, read-out: solubility
  solubility: 0.05 mg/mL (≈ 0.101 mM)
[2]; aqueous with cosolvent or surfactant or cyclodextrin, in Span 20 (Sorbitan monolaurate), read-out: solubility
  solubility: 31.6 mg/mL (≈ 63.9 mM)
[2]; aqueous with cosolvent or surfactant or cyclodextrin, in Span 85 (Sorbitan trioleate), read-out: solubility
  solubility: 92 mg/mL (≈ 186 mM)
[2]; aqueous with cosolvent or surfactant or cyclodextrin, in Tween 80 (POE monooleate), read-out: solubility
  solubility: 50.6 mg/mL (≈ 102 mM)
[2]; in Brij 96 (POE oleyl ether)
  solubility: 85.7 mg/g
[2]; in Capryol 90 (Polyethyleneglycol monocaprylate)
  solubility: 56.6 mg/g
[2]; in Castor oil
  solubility: 16.1 mg/g
[2]; in Coconut oil
  solubility: 18.6 mg/g
[2]; in Cremophor RH 40 (Polyoxyl 40 hydrogenated castor oil)
  solubility: 80.6 mg/g
[2]; in Crossential LN 75 (Linolenic acid)
  solubility: 45.4 mg/g
[2]; in Crossential O94 (Oleic acid)
  solubility: 19.6 mg/g
[2]; in Edenor C8 98-100 (Caprylic acid)
  solubility: 75.5 mg/g
[2]; in Gelucire 44/14 (lauroyl macrogol-32 glycerides)
  solubility: 90.1 mg/g
[2]; in Gelucire 50/13 (stearoyl macrogol-32 glycerides)
  solubility: 78.5 mg/g
[2]; in Labrafil M 1944 CS (Oleic Macrogol-6 glycerides)
  solubility: 30.3 mg/g
[2]; in Labrasol (Caprylocaproyl macrogol-8 glycerides)
  solubility: 111.8 mg/g
[2]; in Lauroglycol (PG monolaurate)
  solubility: 28.5 mg/g
[2]; in Miglyol 812 (Caprylic/capric triglycerides)
  solubility: 37.4 mg/g
[2]; in Myrj 45 (POE stearate)
  solubility: 86.9 mg/g
[2]; in Myvacet 9-45 (Distilled acetylated monoglycerides)
  solubility: 54.8 mg/g
[2]; in Neobee M 20 (PG dicaprylate/dicaprate)
  solubility: 47.7 mg/g
[2]; in Olive oil
  solubility: 10.9 mg/g
[2]; in PEG 1500 (polyethylene glycol 1500)
  solubility: <10 mg/g
[2]; in Phosal 40 MD (Phosphatidylcholine 38 ± 1.5% in glyceryl stearate, soya oil and linoleic acid ethylester)
  solubility: 12.5 mg/g
[2]; in Phosal 50 PG (Phosphatidylcholine ≧ 50% in propylene glycol)
  solubility: 11.7 mg/g
[2]; in Phosal 50 PG (Phosphatidylcholine ≧ 50% in propylene glycol), listed as Compound Ic
  solubility: 11.5 mg/g
[2]; in Phosal 53 MCT (Phosphatidylcholine 56 ± 3% in caprylic/capric triglycerides, alcohol, glyceryl stearate, oleic acid and ascorbyl palmitate)
  solubility: 25.8 mg/g
[2]; in Phosal 75 SA (Phosphatidylcholine 75 ± 3% in alcohol, safflower oil, glyceryl stearate, coconut oil and ascorbyl palmitate)
  solubility: <10 mg/g
[2]; in Phospholipon 90 (Phosphatidylcholine 93%)
  solubility: 40 mg/g
[2]; in Safflower oil
  solubility: 14.8 mg/g
[2]; in Sesame oil
  solubility: 10.9 mg/g
[2]; in VitaminE TPGS (d-α-tocopheryl polyethylene glycol 1000 succinate)
  solubility: 100 mg/g
[2]; oil or lipid, in Imwitor 742 (Glyceryl mono-dicaprylate/caprate), read-out: solubility
  solubility: 31.2 mg/mL (≈ 63.1 mM)
[2]; oil or lipid, in Imwitor 988 (Glyceryl mono-dicaprylate), read-out: solubility
  solubility: 41.2 mg/mL (≈ 83.3 mM)
[2]; oil or lipid, in Labrafil M1944 CS (oleyl macrogol-6-glycerides), read-out: solubility
  solubility: 30.3 mg/mL (≈ 61.3 mM)
[2]; oil or lipid, in Miglyol 812 (caprylic/capric triglyceride), read-out: solubility
  solubility: 35.9 mg/mL (≈ 72.6 mM)
[2]; oil or lipid, in Peanut oil, read-out: solubility
  solubility: 7.2 mg/mL (≈ 14.6 mM)
[2]; oil or lipid, in Soyabean oil, read-out: solubility
  solubility: 31.8 mg/mL (≈ 64.3 mM)
[2]; organic solvent or mixture, in Ethanol, read-out: solubility
  solubility: 5.8 mg/mL (≈ 11.7 mM)
[2]; organic solvent or mixture, in PEG 400 (polyethylene glycol 400), read-out: solubility
  solubility: 78.1 mg/mL (≈ 158 mM)
[2]; organic solvent or mixture, in Transcutol (Diethylene glycol monoethyl ether), read-out: solubility
  solubility: 89.8 mg/mL (≈ 182 mM)
[3]; Fasted intestinal medium pH 6.8
  Compound (Ic) recovered after filtration (2 μm) after incubation with GI media: 4.2 µg/mL
[3]; Fed intestinal medium pH 5
  Compound (Ic) recovered after filtration (2 μm) after incubation with GI media: 8.8 µg/mL
[3]; Gastric medium
  Compound (Ic) recovered after filtration (2 μm) after incubation with GI media: 1.9 µg/mL
[3]; fasted intestinal medium
  filtered fraction: ~2%
[3]; fed intestinal medium
  filtered fraction: 4.5-5.5%
[3]; gastric medium
  filtered fraction: approximately 1%
[4]; aqueous suspension in 0.5% methylcellulose/0.2% tween 80, dose 10 mg/kg
  bioavailability: 3%
[4]; solution of 25 mg/mL in Miglyol 812N, dose 1 mg/kg
  bioavailability: 13%
[4]; solution of 25 mg/mL in Miglyol 812N, dose 10 mg/kg
  bioavailability: 37%
